Experimental data published in US7544497B2, “Compositions for manipulating the lifespan and stress response of cells and organisms” (President and Fellows of Harvard College, priority 2003, dated 2009).
Values joined by “and” are separate entries in the source; they are usually repeats but may differ in a detail not shown here. Equal values may be shown once.

Legend:
[1] = molecular target: T1, recombinant human SIRT1 (Homo sapiens, UniProt Q96EB6); test: SIRT1 fluorescent deacetylation assay (p53-382 acetylated peptide substrate); format: biochemical; details: for SIRT1 stimulating activity (in words): 25 μM NAD+, 25 μM p53-382 acetylated peptide
T1 sequence (Q96EB6 1-747): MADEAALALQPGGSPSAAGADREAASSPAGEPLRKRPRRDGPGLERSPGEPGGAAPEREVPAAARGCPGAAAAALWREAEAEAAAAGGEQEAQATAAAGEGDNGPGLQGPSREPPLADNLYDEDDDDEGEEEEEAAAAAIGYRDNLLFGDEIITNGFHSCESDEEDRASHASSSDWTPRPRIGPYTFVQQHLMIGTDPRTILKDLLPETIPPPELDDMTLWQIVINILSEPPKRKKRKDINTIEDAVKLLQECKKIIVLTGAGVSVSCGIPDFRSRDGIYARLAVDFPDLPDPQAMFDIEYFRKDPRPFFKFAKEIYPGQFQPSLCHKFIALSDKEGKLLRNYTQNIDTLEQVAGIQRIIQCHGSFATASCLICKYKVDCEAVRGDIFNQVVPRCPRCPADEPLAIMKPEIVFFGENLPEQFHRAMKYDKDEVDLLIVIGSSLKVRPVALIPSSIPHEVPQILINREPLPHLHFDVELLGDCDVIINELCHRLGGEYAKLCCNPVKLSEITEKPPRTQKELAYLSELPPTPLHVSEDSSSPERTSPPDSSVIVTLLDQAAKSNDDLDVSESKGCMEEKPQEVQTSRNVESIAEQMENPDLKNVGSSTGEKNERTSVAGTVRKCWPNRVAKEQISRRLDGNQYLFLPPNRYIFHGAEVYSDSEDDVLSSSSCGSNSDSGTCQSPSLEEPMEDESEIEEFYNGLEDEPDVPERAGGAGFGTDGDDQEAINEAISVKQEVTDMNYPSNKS
Source text: To identify compounds that modulate SIRT1 activity, we screened a number of small molecule libraries using a fluorescent deacetylation assay in 96-well plates^26. The substrate used in the assay was a fluorogenic peptide based on the sequence encompassing the p53-K382 acetylation site, a known target of SIRT1 in vivo^20,21,27. This substrate was preferred over a variety of other fluorogenic peptide substrates that were based on other known HDAC targets (FIG. 5). The small molecule libraries included analogues of nicotinamide, ε-acetyl lysine, NAD^+, nucleotides, nucleotide analogues and purinergic ligands. From the initial screen, several sirtuin inhibitors were found (Supplementary Table 7). However, the most striking outcome was the identification of two compounds, quercetin and piceatannol, that stimulated SIRT1 activity five and eight-fold, respectively (Table 1). Both quercetin and piceatannol have been previously identified as protein kinase inhibitors^28,29.
His6-tagged recombinant SIRT1 and GST-tagged recombinant Sir2 were prepared as previously described^26. From 0.1 to 1 μg of SIRT1 and 1.5 μg of Sir2 were used per deacetylation assay (in 50 μl total reaction) as previously described^26. SIRT1 assays and certain of those for Sir2 employed the p53-382 acetylated substrate (‘Fluor de Lys-SIRT1’, BIOMOL) rather than FdL.
Themed compound libraries (BIOMOL) were used for primary and secondary screening. […] For water soluble compounds and negative controls, 1% v/v DMSO was added to the assay. […] HeLa cells were grown and the cellular deacetylation assays were performed and read, as above, but in full-volume 96-well microplates (Corning Costar 3595). Unless otherwise indicated all initial rate measurements were means of three or more replicates, obtained with single incubation times, at which point 5% or less of the substrate initially present had been deacetylated. Calculation of net fluorescence increases included subtraction of a blank value, which in the case of Sir2 was obtained by omitting the enzyme from the reaction and in the case of SIRT1 by adding an inhibitor (200 μM suramin or 1 mM nicotinamide) to the reaction prior to the acetylated substrate. […] All error bars represent the standard error of the mean.
All SIRT1 rate measurements used in the calculation of “Ratio to Control Rate” were obtained with 25 μM NAD^+ and 25 μM p53-382 acetylated peptide substrate were performed as described above and in K. T. Howitz et al. Nature (2003) 425: 191. All ratio data were calculated from experiments in which the total deacetylation in the control reaction was 0.25-1.25 μM peptide or 1-5% of the initial concentration of acetylated peptide.

[2] = test system: C. elegans; test: C. elegans lifespan assay; format: in vivo; details: 100/500 μM, N2 worms, E. coli as food; untreated 100%
Procedure: Thus, the presence of resveratrol in the growth media of C. elegans extends their lifespan.
Bristol N2 (Caenorhabditis Genetics Center) was used as the wild-type strain. The sir-2.1 mutant strain was generated by backcrossing VC199 (sir-2.1 (ok434)) to N2 four times. Cultures were grown on standard NGM media and maintained on E. coli strain OP50. For the lifespan assays, synchronized animals were transferred to treatment plates as young adults (2 d after hatching, day 0 of assay), and were transferred to fresh treatment plates every 2 days for the first 6 to 8 days of the assay. […] For some lifespan trials, heat-killed OP50 were used as a food source. OP50 cultures were heated to 65° C. for 30 minutes, then pelleted and resuspended in 1/10 volume in S Basal supplemented with 10 mM MgSO4. In all assays, worms were monitored daily for mortality by gently probing with a platinum pick. Assays were performed at 24° C.

[3] = Solution stability (t1/2) from SIRT1 fold-stimulation of aged stock; format: physicochemical; details: ethanol stock 2.5 mM, room temperature, nitrogen atmosphere
Source text: The fold-stimulation (ratio to control) obtained with a compound diluted from an aged stock solution was compared to an identical dilution from a stock solution freshly prepared from the solid compound. “t1/2” is defined as the time required for the SIRT1 fold-stimulation of the compound from the aged solution to decay to one-half of that obtained from a freshly prepared solution. […] Stocks were aged by storage at room temperature, in glass vials, under a nitrogen atmosphere.

[4] = test system: S. cerevisiae; test: Yeast replicative lifespan by micro-manipulation; details: 10 μM; for Average lifespan: complete 2% glucose medium, wild type untreated 22.9
[5] = test system: Human 293 cells; test: Survival of 293 cells (Coulter counter); format: cell-based; details: 50 micromolar
Procedure: Human 293 were grown to exponential phase under standard conditions and subjected to a dose of compound (50 micromolar) for 96 hours. The number of live cells each time point was counted using a Coulter counter.

[6] = molecular target: T2, SIRT1 deacetylase (Homo sapiens, UniProt Q96EB6); test: High-throughput SIRT1 screening protocol (384 well); format: biochemical; details: 200 μM NAD+, 5 μM Fluor de Lys-SIRT1 substrate; roughly 50 μM
T2 construct: purchased BIOMOL
T2 sequence (Q96EB6 1-747): T1 sequence (Q96EB6 1-747)
Procedure: The reaction mixture contains (final): 0.5 units/reaction SIRT1 deacetylase (BIOMOL); 200 μM NAD^+; 5 μM Fluor de Lys-SIRT1 substrate (BIOMOL); buffer (25 mM Tris/Cl, pH 8.0, 137 mM NaCl, 2.7 mM KCl, 1 mM MgCl2, and 1 mg/ml BSA). In addition, a reaction mixture containing no enzyme was made so that each well receiving compound has a corresponding “no enzyme control” well. Reactions were performed in black 384 well plates (NUNC) in a final volume of 25 μl/well.
The reactions were started by combining enzyme and substrate in a reaction mixture immediately prior to aliquoting in plates (or substrate only for “no enzyme control” plates). Mixture were aliquoted to plates using Biotek μFill (Biotek Instruments). Control mixtures were manually added to designated wells. A library compound was added at a desired concentration by pin transfer to both “with enzyme” and “no enzyme” plates. Compounds were added in at least triplicate (with enzyme reaction in duplicate and no enzyme controls) at a final concentration of roughly 50 μM. The plates were incubated at 37° C. for 30-60 minutes. Then 25 μl of 1× Developer II (BIOMOL) plus 2 mM nicotinamide were added to all wells to stop the reactions. The reactions were left for at least 30 minutes at 37° C. for the signal to develop. The plates were read in a microplate-reading fluorometer capable of excitation at a wavelength in the range of 350-380 nm and detection of emitted light in the range of 440-460 nm. A read time of 0.1 sec per well was used.

[7] = test system: D. melanogaster; test: D. melanogaster adult survival assay; format: in vivo
Procedure: Survival assays were conducted independently with adult D. melanogaster in two laboratories. In the first laboratory, all trials used an yw marked wild-type strain. […] Newly eclosed adults were placed in 1L demography cages with approximately 75 males and 75 females. Three to four replicate 1L demography cages were used for each treatment group in each trial. Every two days, dead flies were removed and scored, and food vials were replenished. Food vials contained cornmeal-sugar-yeast diet with SAF yeast as either 2% or 3% by weight. […] Fresh stock solutions and adult media were prepared weekly. In the second laboratory, lifespan trials were conducted with the wild type strain Canton-S, dSir2^4.5 and […], University of Oregon), […], Stockholm University, Sweden), and dSir2^KG00871 (Drosophila Stock Center, Bloomington, Ind.). Larvae for all tests were reared on standard cornmeal-sugar-yeast diet. […] In all trials, 20 males with 20 females were placed into each of 10 vials/treatment group. Every two days, flies were passed into new vials and dead flies were counted. […] Fresh stock solution and adult media was prepared weekly.

## Oc1cc(O)cc(/C=C/c2ccc(Cl)cc2)c1 [BML-217, 3,5-Dihydroxy-4′-chloro-trans-stilbene]
[1]
  SIRT1 stimulating activity (in words): did not significantly diminish

## O=C(Nc1cc(O)cc(O)c1)c1ccccc1 [BML-219, N-(3,5-Dihydroxyphenyl)benzamide]
[1]
  SIRT1 stimulating activity (in words): abolished activity

## CC(=O)Oc1cc(O)cc(/C=C/c2ccc(O)cc2)c1 [BML-221, 3,4′-Dihydroxy-5-acetoxy-trans-stilbene]
[2]
  % change in C. elegans lifespan relative to untreated organisms: >100% (ongoing)
[3]
  solution stability relative to resveratrol: vast improvement
[4]; 2% (w/v) glucose YPD, untreated 100%
  % change in yeast replicative lifespan relative to untreated organisms: 165%

## Oc1cc(O)cc(/C=C/C2CCCCC2)c1 [BML-224]
[1]
  SIRT1 stimulating activity (in words): nearly as detrimental

## CCc1ccc(/C=C/c2cc(O)cc(O)c2)cc1 [BML-225]
[5]; 0 h
  Survival of 293 cells: 100%
[5]; 48 h
  Survival of 293 cells: 5%
[5]; 96 h
  Survival of 293 cells: 8%

## Cc1ccc(/C=C/c2cc(O)cc(O)c2)cc1 [BML-228]
[5]; 0 h
  Survival of 293 cells: 100%
[5]; 48 h
  Survival of 293 cells: 46%
[5]; 96 h
  Survival of 293 cells: 32%

## CSc1ccc(/C=C/c2cc(O)cc(O)c2)cc1 [BML-230]
[1]; 25 μM NAD+ and p53-382 acetylated peptide, 20 minutes
  SIRT1 dose response, stimulated activity compared with resveratrol: exceeds that stimulated by resveratrol at all concentrations tested
[1]; 500 μM activator, 25 μM NAD+ and p53-382 acetylated peptide, 20 minutes
  ratio (R) of BML-230-stimulated to resveratrol-stimulated SIRT1 rate: ~1.4
[5]; 0 h
  Survival of 293 cells: 100%
[5]; 48 h
  Survival of 293 cells: 55%
[5]; 96 h
  Survival of 293 cells: 57%

## [N-]=[N+]=Nc1ccc(/C=C/c2cc(O)cc(O)c2)cc1 [BML-232]
[1]
  SIRT1 stimulating activity (in words): very similar SIRT1 activating properties to resveratrol

## COc1ccc(/C=C/c2cc(O)cc(O)c2)cc1 [BML-233, 3,5-Dihydroxy-4′-methoxy-trans-stilbene]
[6]
  activation of SIRT1 (positive controls): 2.1 fold

## NC(=O)c1cccnc1 [Nicotinamide]
[1]; 50 μM nicotinamide, absence of resveratrol, NAD+ or p53-382 acetylated peptide varied
  SIRT1 Vmax decrease: 30% and 36%

## Oc1cc(O)cc(/C=C/c2ccccc2)c1 [Pinosylvin, 3,5-Dihydroxy-trans-stilbene]
[1]
  SIRT1 stimulating activity (in words): did not significantly diminish
[6]
  activation of SIRT1 (positive controls): 3.28 fold

## O=C(/C=C/c1ccc(O)c(O)c1)c1ccc(O)cc1O [butein]
[4]
  Average lifespan: 35.5 generations

## O=c1c(O)c(-c2ccc(O)c(O)c2)oc2cc(O)ccc12 [fisetin]
[7]; restricted diet
  longevity on restricted diet: neither resveratrol nor fisetin further increased longevity
[7]; wild type, males and females, independent tests
  lifespan extension (up to): up to 23%
[4]
  Average lifespan: 30.0 generations

## O=c1c(-c2ccc(O)cc2)coc2cc(O)cc(O)c12 [genistein]
[1]
  SIRT1 stimulating activity (in words): absence of activity

## Oc1cc(O)cc(/C=C/c2ccc(O)c(O)c2)c1 [piceatannol]
[4]
  Average lifespan: 24.0 generations

## O=c1c(O)c(-c2ccc(O)c(O)c2)oc2cc(O)cc(O)c12 [quercetin]
[1]; initial screen
  stimulation of SIRT1 activity: five
[4]
  Average lifespan: 23.4 generations
